The supplement of paper PMC10307832

Assays:
Experiment in all cases: relative viability (nuclei count vs DMSO), 5 days (fraction); higher = more cells survive
Vandetanib + Bortezomib = compound: COc1cc2/c(=N/c3ccc(Br)cc3F)nc[nH]c2cc1OCC1CCN(C)CC1 [Vandetanib] + CC(C)C[C@H](NC(=O)[C@H](Cc1ccccc1)NC(=O)c1cnccn1)B(O)O [Bortezomib] (partner 0.002 µM)
In short: (§1)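 Each reported value is a median over duplicate plates. It expresses relative viability: treated-well nuclei count divided by vehicle-well nuclei count. Lung cancer cell lines in 1536-well plates were dosed by pin tool a day after seeding, alone with one drug or with a fixed anchor-drug dose plus five library-drug doses (not always all listed) in √10 steps, and nuclei were counted after 5 days.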

NVP-TAE684 + Bortezomib = compound: COc1cc(N2CCC(N3CCN(C)CC3)CC2)ccc1Nc1ncc(Cl)c(Nc2ccccc2S(=O)(=O)C(C)C)n1 [NVP-TAE684] + CC(C)C[C@H](NC(=O)[C@H](Cc1ccccc1)NC(=O)c1cnccn1)B(O)O [Bortezomib] (partner 0.002 µM)
In short: as §1

[1] = compound: C1=CC=C2C(=C1)N=C(S2)C(C#N)C3=NC(=NC=C3)NCCC4=CN=CC=C4 + CC1(C)CCC(c2ccc(Cl)cc2)=C(CN2CCN(c3ccc(C(=O)NS(=O)(=O)c4ccc(N[C@H](CCN5CCOCC5)CSc5ccccc5)c(S(=O)(=O)C(F)(F)F)c4)cc3)CC2)C1 [Navitoclax] (partner 0.5 µM)
In short: as §1

Vandetanib + Phenformin = compound: COc1cc2/c(=N/c3ccc(Br)cc3F)nc[nH]c2cc1OCC1CCN(C)CC1 [Vandetanib] + N=C(N)NC(=N)NCCc1ccccc1 [Phenformin] (partner 250 µM)
In short: as §1

Cell Line | relative viability (Vandetanib + Bortezomib; first compound 0.02 µM) | relative viability (Vandetanib + Bortezomib; first compound 0.06325 µM) | relative viability (Vandetanib + Bortezomib; first compound 0.2 µM) | relative viability (Vandetanib + Bortezomib; first compound 0.6325 µM) | relative viability (Vandetanib + Bortezomib; first compound 2 µM) | relative viability (NVP-TAE684 + Bortezomib; first compound 0.2 µM) | relative viability (NVP-TAE684 + Bortezomib; first compound 0.6325 µM) | relative viability (NVP-TAE684 + Bortezomib; first compound 2 µM) | relative viability ([1]; first compound 0.005 µM) | relative viability ([1]; first compound 0.01581 µM) | relative viability ([1]; first compound 0.05 µM) | relative viability ([1]; first compound 0.1581 µM) | relative viability ([1]; first compound 0.5 µM) | relative viability (Vandetanib + Phenformin; first compound 0.02 µM) | relative viability (Vandetanib + Phenformin; first compound 0.06325 µM) | relative viability (Vandetanib + Phenformin; first compound 0.2 µM) | relative viability (Vandetanib + Phenformin; first compound 0.6325 µM) | relative viability (Vandetanib + Phenformin; first compound 2 µM)
NCI-H838 | 0.73 | 0.807 | 0.664 | 0.706 | 0.614 | 0.86 | 0.902 | 0.399 | 1.02 | 1.22 | 1.16 | 1.1 | 1.22 | 0.533 | 0.579 | 0.617 | 0.542 | 0.646
NCI-H1355 | 1.22 | 1.18 | 1.16 | 1.22 | 1.27 | 1.23 | 1.17 | 0.859 | 0.975 | 0.959 | 0.906 | 1.03 | 0.975 | 0.436 | 0.461 | 0.431 | 0.448 | 0.406
NCI-H1437 | 0.486 | 0.56 | 0.47 | 0.506 | 0.398 | 0.452 | 0.487 | 0.322 | 1.02 | 1.15 | 1.14 | 1.17 | 1.08 | 0.271 | 0.3 | 0.345 | 0.272 | 0.299
NCI-H1650 | 0.253 | 0.21 |  | 0.209 | 0.195 | 0.194 | 0.183 | 0.173 | 0.964 | 1.17 | 1.22 | 1.31 | 1.07 | 0.409 | 0.332 | 0.251 | 0.329 | 0.321
NCI-H1651 | 0.915 | 0.883 | 0.893 | 0.897 | 0.839 | 0.987 | 0.98 | 0.93 | 0.9 | 1.08 | 0.95 | 1.11 | 1.17 | 0.304 | 0.299 | 0.325 | 0.353 | 0.311
NCI-H1666 | 0.849 | 0.814 | 0.712 | 0.831 | 0.786 | 0.849 | 0.71 | 0.4 | 0.841 | 0.937 | 0.965 | 1.05 | 0.797 | 0.541 | 0.559 | 0.585 | 0.586 | 0.562
NCI-H1734 | 0.976 | 0.869 | 0.944 | 0.904 | 0.926 | 0.986 | 0.982 | 0.601 | 0.58 | 1.05 | 0.886 | 0.932 | 0.664 | 0.403 | 0.369 | 0.32 | 0.379 | 0.39
NCI-H1755 | 0.998 | 1.04 | 1.07 | 1 | 0.959 |  | 0.949 | 0.838 | 0.968 | 1.1 | 1 | 1.15 | 0.948 | 0.67 | 0.593 | 0.671 | 0.38 | 0.609
